# Source: patent US12576127B2, “Fibroblast binding agents and use thereof” (Orionis Biosciences, Inc., priority 2018, dated 2026)
# Test system: B16BL6 cells
# Experiment: B16BL6 tumor model (Example 8)
# Assay type: in vivo, mouse
# Details: p.l. days 7-15, FIGS. 14A-B
# Experimental: Mice were maintained in pathogen-free conditions in a temperature-controlled environment with 12/12 hour light/dark cycles and received food and water ad libitum. Female C57BL/6J mice (Charles River Laboratories, Saint-Germain sur l'Arbresle, France) were inoculated with B16BL6 or MC38 or Panc02 cells, at the age of 8 weeks, using a 30G insulin syringe, in 50 μl suspension, on the shaved flank of briefly sedated mice (using 4% isoflurane). B16BL6 cells are a murine melanoma cell line that are typically used as a model for human skin cancers with increased resistance to doxorubicin. MC38 cells are derived from a murine colon adenocarcinoma and are typically used as a model for human colon cancers. Panc02 cells are derived from a murine pancreatic ductal adenocarcinoma and are typically used as a model for human pancreatic cancers.
# All tumor treatments were done perilesionally (p.l.), which is s.c. at the tumor border, starting at day 7 after tumor inoculation. Mice received FAP-AFN or FAP-WTmIFN treatments on days 7, 8, 9, 10, 12, 13, 14 and 15. Control mice were treated with PBS on the same days. FAP-AFN or FAP-VVTmIFN were given about […] (1.8 mg/kg). […]
compound,measurement,value
COc1cccc2c1C(=O)c1c(O)c3c(c(O)c1C2=O)C[C@@](O)(C(=O)CO)C[C@@H]3O[C@H]1C[C@H](N)[C@H](O)[C@H](C)O1 [doxorubicin],tumor growth,"tumor stasis at best, but no tumor regression"
